Assays:
[1] = in vivo; cited from earlier work
[2] = tested on: mouse; settings: recognized model for evaluation of neuroprotective drugs; cited from earlier work
[3] = tested on: in vivo models of stroke; settings: variety of in vivo models of stroke; cited from earlier work
[4] = tested on: DBA/2 mice; assay: In vivo anticonvulsant activity in the DBA/2 mouse model (mouse audiogenic assay); settings: vs vehicle controls, HCl salt form
Method: As discussed above, preferred compounds of the invention in a standard anticonvulsant in vivo audiogenic test, such as the audiogenic mouse assay of Example 11 which follows, where DBA/2 mice about 20–23 days old are injected intraperitoneally with a test compound 30 minutes prior to being placed in a bell jar with exposure to auditory stimulus of 12 KHz sine wave at 110–120 db. References herein in vivo “audiogenic assay” are intended to refer to that protocol. […] As discussed above, activity in the audiogenic assay has been recognized as indicative that a test compound has neuroprotective properties. See, e.g., M. Tricklebank et al., European Journal of Pharmacology, supra; T. Seyfried, Federation Proceedings, supra.
Compounds were tested for their effectiveness in preventing seizures in DBA/2 mice which have a unique sensitivity to auditory stimulation. Exposure to loud high-frequency sounds can trigger seizure activity in these animals. This sensitivity develops from postnatal day 12 and peaks around day 21 and slowly diminishes as the animals mature. The unusual response to auditory stimulation in this strain of mouse is believed to be due to a combination of early myelination (causing an unusually low excitatory threshold) and delayed development of inhibitory mechanisms.
Mice were injected intraperitoneally with the compound specified in Table I below or with vehicle control, 30 minutes prior to being placed in a bell jar and turning on the auditory stimulus (12 KHz sine wave at 110–120 db). Administered doses are specified in Table I as milligram of compound per kilogram bodyweight of mouse. The auditory stimulus was left on for 60 seconds and mice reactions were timed and recorded. Percentage inhibition was determined with reference to vehicle controls. All compounds were tested in HCl salt form.

[5] = dose 20 mg/kg intraperitoneally 30 minutes prior to auditory stimulus (12 KHz, 110–120 db)

Compound	melting point	Audiogenic Response % Inhib. [4, 5]	also measured
Cl.N/C(=N\C(=O)c1cccs1)NCCc1ccccc1	198 to 200 °C	–	–
CCCCOc1ccc(C(=O)/N=C(\N)NCCc2c[nH]c3ccccc23)cc1.Cl	158 to 162 °C	–	–
C[C@]12N[C@H](Cc3ccccc31)c1ccccc12 [MK-801]	–	–	toxicity [1]: has shown toxicity; activity in mouse audiogenic tests [2]: good activity; results in in vivo models of stroke [3]: good results
CCCCOc1ccc(NC(=N)NCCCCc2ccccc2)cc1 [N-(4-butoxyphenyl)-N′-(4-phenylbutyl)guanidine]	–	97%	–
CCOc1ccc(NC(=N)NCCCCc2ccccc2)cc1 [N-(4-ethoxyphenyl)-N′-(4-phenylbutyl)guanidine]	–	60%	–
COc1ccc(C(=O)/N=C(\N)NCCCCc2ccccc2)cc1.Cl [N-(4-methoxybenzoyl)-N′-(4-phenylbutyl)guanidine, hydrochloride]	172 to 174 °C	42%	–
COc1ccc(NC(=N)Nc2ccc(C(C)C)cc2)cc1 [N-(4-methoxyphenyl)-N′-(4-isopropylphenyl)guanidine]	–	56%	–
Cc1ccc(C(=O)/N=C(\N)Nc2ccc(C(C)C)cc2)cc1.Cl [N-(4-methylbenzoyl)-N′-(4-isopropylphenyl)guanidine, hydrochloride]	–	30%	–
Cc1ccc(C(=O)/N=C(\N)NCCCCc2ccccc2)cc1.Cl [N-(4-methylbenzoyl)-N′-(4-phenylbutyl)guanidine, hydrochloride]	–	75%	Audiogenic Response % Inhib. ([4]; dose 10 mg/kg intraperitoneally 30 minutes prior to auditory stimulus (12 KHz, 110–120 db)): 16%

— patent US7041702B1, “Pharmaceutically active compounds and methods of use” (Scion Pharmaceuticals, Inc., priority 1997, dated 2006)
